Each compound was assayed against T1, human ADRA2B receptor (Homo sapiens, UniProt P18089) (assay: ADRA2B arrestin agonist assay). Settings: CHO-K1 cells stably expressing human ADRA2B; read-out: Beta-Arrestin - Human Alpha2B EC50.
T1 construct: expressed in transfected cells
T1 sequence (P18089 1-450): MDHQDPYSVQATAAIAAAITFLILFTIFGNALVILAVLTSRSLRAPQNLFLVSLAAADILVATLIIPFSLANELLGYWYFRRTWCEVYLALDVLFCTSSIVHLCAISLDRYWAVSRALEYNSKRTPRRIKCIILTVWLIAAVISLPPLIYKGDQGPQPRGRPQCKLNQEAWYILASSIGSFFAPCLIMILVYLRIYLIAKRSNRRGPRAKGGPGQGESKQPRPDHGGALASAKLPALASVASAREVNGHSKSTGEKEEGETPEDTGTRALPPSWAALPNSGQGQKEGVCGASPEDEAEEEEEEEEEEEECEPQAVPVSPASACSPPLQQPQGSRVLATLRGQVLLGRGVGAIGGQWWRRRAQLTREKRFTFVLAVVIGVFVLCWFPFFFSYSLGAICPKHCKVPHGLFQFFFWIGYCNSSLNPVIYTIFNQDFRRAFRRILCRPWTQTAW
Type: cell-based
How it was run: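 CHO-K1 cells stably expressing human ADRA2B, thawed from frozen stock and plated overnight, were treated with agonist for 2 h at 37 °C. Arrestin recruitment detected by luminescence after 2 h with detection reagents at room temperature.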

EC50 [nM] | Structure (SMILES)
10 to 50 | [2H]C([2H])([2H])Oc1c(C)cccc1C(Cc1ccnc(C)n1)c1c[nH]cn1 (stereo not drawn) [Compound 359, 4-{2-(4-imidazolyl)-2-[2-(^2H3)methoxy-3-tolyl]ethyl}-2-methylpyrimidine]
10 to 50 | Cc1cccc(C(Cc2ccc(C#N)nc2)c2c[nH]cn2)c1C (stereo not drawn) [Compound 145, 5-[2-(4-imidazolyl)-2 (2,3-xylyl)ethyl]-2-pyridinecarbonitrile]

Structure (SMILES) | EC50 [nM]
Cc1cccc(C(Cc2cnsc2)c2c[nH]cn2)c1C (stereo not drawn) [Compound 391, 4-[2-(4-imidazolyl)-2-(2,3-xylyl)ethyl]isothiazole] | < 10

From US20260042769A1, “TRIARYL AGONISTS OF ALPHA-2 ADRENERGIC RECEPTORS” (ALCEPTOR THERAPEUTICS, INC., priority 2023, published 2026)
